The values that follow come from patent US9403801B2 (Calitor Sciences, LLC, priority 2014, dated 2016).

For one data set, the target named is JAK1 (h) (Homo sapiens (Human), UniProt P23458). The experiment in a line: JAK1 kinase assay (33P-ATP filter binding, Millipore). Format: biochemical. The protocol: (§1) Kinase assays can be performed by measurement of incorporation of γ-^33P ATP into immobilized myelin basic protein (MBP). High binding white 384 well plates (Greiner) are coated with MBP (Sigma #M−1891) by incubation of 60 μL/well of 20 μg/mL MBP in Tris-buffered saline (TBS; 50 mM Tris pH 8.0, 138 mM NaCl, 2.7 mM KCl) for 24 h at 4° C. Plates are washed 3× with 100 μL TBS. Kinase reactions are carried out in a total volume of 34 μL in kinase buffer (5 mM Hepes pH 7.6, 15 mM NaCl, 0.01% bovine gamma globulin (Sigma #I-5506), 10 mM MgCl2, 1 mM DTT, 0.02% TritonX-100). Compound dilutions are performed in DMSO and added to assay wells to a final DMSO concentration of 1%. Each data point is measured in duplicate, and at least two duplicate assays are performed for each individual compound determination. Enzyme is added to final concentrations of 10 nM or 20 nM, for example. A mixture of unlabeled ATP and γ-^33P ATP is added to start the reaction (2×10^6 cpm of γ-^33P ATP per well (3000 Ci/mmole) and 10 μM unlabeled ATP, typically. The reactions are carried out for 1 h at room temperature with shaking. Plates are washed 7× with TBS, followed by the addition of 50 μL/well scintillation fluid (Wallac). Plates are read using a Wallac Trilux counter. This is only one format of such assays; various other formats are possible, as known to one skilled in the art.
(§2) The above assay procedure can be used to determine the IC50 for inhibition and/or the inhibition constant, Ki. The IC50 is defined as the concentration of compound required to reduce the enzyme activity by 50% under the condition of the assay. The IC50 value is estimated by preparing a 10 point curve using a 1/2 log dilution series (for example, a typical curve may be prepared using the following compound concentrations: 3 μM, 1 μM, 0.3 μM, 0.1 μM, 0.03 μM, 0.01 μM, 0.003 μM, 0.001 μM, 0.0003 μM and 0 μM).
(§3) The kinase assays described herein were performed at Millipore UK Ltd, Dundee Technology Park, Dundee DD2 1SW, UK.

The next data set addresses JAK2 (h) (Homo sapiens (Human), UniProt O60674). In words: JAK2 kinase assay (33P-ATP filter binding, Millipore). It counts as biochemical. As for the experimental part: as §1, §2, §3
Data set [1] in a line: Compound stability in human liver microsomes. The following applies: for half-life at 5 μM: compound 5 μM, NADPH 1.0 mM, 37° C.; for CLint scaled at 5 μM: in vivo CLint extrapolated. Format: in vitro ADME. As for the experimental part:
(§4) Human or rat liver microsomes incubations were conducted in duplicate in polypropylene tubes. The typical incubation mixtures consisted of human or rat liver microsomes (0.5 mg protein/mL), compounds of interest (5 μM) and NADPH (1.0 mM) in a total volume of 200 μL potassium phosphate buffer (PBS, 100 mM, pH 7.4). Compounds were dissolved in DMSO and diluted with PBS such that the final concentration of DMSO was 0.05%. The enzymatic reactions were commenced with the addition of protein after a 3-min preincubation and incubated in a water bath open to the air at 37° C. Reactions were terminated at various time points (0, 5, 10, 15, 30, 60 min) by adding equal volume of ice-cold acetonitrile. The samples were stored at −80° C. until LC/MS/MS assays.
(§5) The concentrations of compounds in the incubation mixtures of human or rat liver microsomes were determined by a LC/MS/MS method. The ranges of the linearity in the concentration range were determined for each tested compounds.
(§6) A parallel incubation was performed using denatured microsomes as the negative control, and reactions were terminated at various time points (0, 15, 60 min) after incubation at 37° C.
(§7) Dextromethorphan (70 μM) was selected as the positive control, and reactions were terminated at various time points (0, 5, 10, 15, 30, 60 min) after incubation at 37° C. Both positive and negative control samples were included in each assay to ensure the integrity of the microsomal incubation system.
(§8) The concentrations of compounds in human or rat liver microsome incubations were plotted as a percentage of the relevant zero time point control for each reaction. The in vivo CLint were extrapolated (ref.: Naritomi, Y.; Terashita, S.; Kimura, S.; Suzuki, A.; Kagayama, A.; and Sugiyama, Y.; Prediction of human hepatic clearance from in vivo animal experiments and in vitro metabolic studies with liver microsomes from animals and humans. Drug Metab. Dispos., 2001, 29: 1316-1324).

A short description of data set [2]: Compound stability in rat liver microsomes. It counts as in vitro ADME. As to conditions: for half-life at 5 μM: compound 5 μM, NADPH 1.0 mM, 37° C.; for CLint scaled at 5 μM: in vivo CLint extrapolated. As for the experimental part:
as §4, §5, §6, §7, §8

A short description of data set [3]: Pharmacokinetics after intravenous and oral administration in rats. The following applies: for Clearance (CL) after iv dosing / AUC(0-t) / half-life / Vd: dose 1 mg/kg (Ex. 27: 0.72 mg/kg), iv dosing; for F: oral bioavailability; for AUC(0-t) / half-life / Vd: rat, plasma; for Vd: read-out: Vss. Format: in vivo. The protocol:
The LC/MS/MS system used in the analysis consists of an Agilent 1200 Series vacuum degasser, binary pump, well-plate autosampler, thermostatted column compartment, the Agilent G6430 Triple Quadrupole Mass Spectrometer with an electrosprayionization (ESI) source. Quantitative analysis was carried out using MRM mode. The parameters for MRM transitions are in the Table A.
An Agilent XDB-C18, 2.1×30 mm, 3.5 μM column was used for the analysis. 5 μL of the samples were injected. Analysis condition: The mobile phase was 0.1% formic acid in water (A) and 0.1% formic acid in methanol (B). The flow rate was 0.4 mL/min. And the gradient of Mobile phase was in the Table B.
Alternatively, an Agilent 6330 series LC/MS/MS spectrometer equipped with G1312A binary pumps, a G1367A autosampler and a G1314C UV detector were used in the analysis. An ESI source was used on the LC/MS/MS spectrometer. The analysis was done in positive ion mode as appropriate and the MRM transition for each analyte was optimized using standard solution. A Capcell MP-C18 100×4.6 mm I.D., […] column (Phenomenex, Torrance, Calif., USA) was used during the analysis. The mobile phase was 5 mM ammonia acetate, 0.1% MeOH in water (A): 5 mM ammonia acetate, 0.1% MeOH in acetonitrile (B) (70:30, v/v). The flow rate was 0.6 mL/min. Column was maintained at ambient temperature. 20 μL of the samples were injected.
The compounds disclosed herein are assessed in pharmacokinetic studies in mice, rats, dogs or monkeys. The compounds are administered as a water solution, 2% HPMC+1% TWEEN®80 in water solution, 5% DMSO+5% solution in saline, 4% MC suspension or capsule. For the intravenous administration, the animals are generally given at 1 or 2 mg/kg dose. For the oral (p.o.) dosing, mice and rats are generally given 5 or 10 mg/kg dose, and dogs and monkeys are generally given 10 mg/kg dose. The blood samples (0.3 mL) are drawn at 0.25, 0.5, 1.0, 2.0, 3.0, 4.0, 6.0, 8.0, 12 and 24 h time points or 0.083, 0.25, 0.5, 1.0, 2.0, 4.0, 6.0, 8.0 and 24 h time points and centrifuged at 3,000 or 4000 rpm for 2 to 10 min. The plasma solutions are collected, and stored at −20° C. or −70° C. until analyzed by LC/MS/MS as described above.

Setting [4] is: pH 7.4, Human liver microsomes 0.5 mg protein/mL.
Where [5] appears, read: pH 7.4, Rat liver microsomes 0.5 mg protein/mL.

JAK1 (h), sequence (P23458 whole entry): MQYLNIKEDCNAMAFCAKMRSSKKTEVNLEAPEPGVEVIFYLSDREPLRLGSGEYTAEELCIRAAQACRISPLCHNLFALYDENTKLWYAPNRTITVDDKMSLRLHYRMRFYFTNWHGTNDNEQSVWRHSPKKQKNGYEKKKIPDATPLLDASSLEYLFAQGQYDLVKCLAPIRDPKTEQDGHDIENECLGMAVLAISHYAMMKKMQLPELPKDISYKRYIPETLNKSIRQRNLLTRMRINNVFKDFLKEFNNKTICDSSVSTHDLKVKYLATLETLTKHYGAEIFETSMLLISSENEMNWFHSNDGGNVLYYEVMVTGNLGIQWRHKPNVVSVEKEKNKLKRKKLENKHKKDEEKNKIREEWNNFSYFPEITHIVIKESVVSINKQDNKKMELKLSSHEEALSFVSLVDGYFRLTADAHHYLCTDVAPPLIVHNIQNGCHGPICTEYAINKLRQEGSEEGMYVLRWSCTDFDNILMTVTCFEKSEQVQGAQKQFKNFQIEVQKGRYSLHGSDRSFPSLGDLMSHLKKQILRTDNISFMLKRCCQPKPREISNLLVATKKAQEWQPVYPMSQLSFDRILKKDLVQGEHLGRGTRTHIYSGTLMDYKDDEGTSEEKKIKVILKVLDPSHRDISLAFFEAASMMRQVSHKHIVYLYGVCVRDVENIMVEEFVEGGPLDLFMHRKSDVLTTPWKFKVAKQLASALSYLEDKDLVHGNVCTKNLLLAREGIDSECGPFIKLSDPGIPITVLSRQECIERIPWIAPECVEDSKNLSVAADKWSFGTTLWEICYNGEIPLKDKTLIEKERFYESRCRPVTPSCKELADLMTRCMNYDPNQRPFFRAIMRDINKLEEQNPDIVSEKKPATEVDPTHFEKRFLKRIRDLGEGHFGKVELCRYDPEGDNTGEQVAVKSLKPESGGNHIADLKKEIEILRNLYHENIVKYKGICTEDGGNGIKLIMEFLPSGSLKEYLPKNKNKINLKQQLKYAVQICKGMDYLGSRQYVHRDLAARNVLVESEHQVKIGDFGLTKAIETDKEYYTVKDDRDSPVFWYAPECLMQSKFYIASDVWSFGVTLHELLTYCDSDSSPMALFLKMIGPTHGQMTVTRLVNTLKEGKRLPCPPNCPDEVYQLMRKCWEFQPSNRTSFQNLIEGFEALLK
JAK2 (h), sequence (O60674 whole entry): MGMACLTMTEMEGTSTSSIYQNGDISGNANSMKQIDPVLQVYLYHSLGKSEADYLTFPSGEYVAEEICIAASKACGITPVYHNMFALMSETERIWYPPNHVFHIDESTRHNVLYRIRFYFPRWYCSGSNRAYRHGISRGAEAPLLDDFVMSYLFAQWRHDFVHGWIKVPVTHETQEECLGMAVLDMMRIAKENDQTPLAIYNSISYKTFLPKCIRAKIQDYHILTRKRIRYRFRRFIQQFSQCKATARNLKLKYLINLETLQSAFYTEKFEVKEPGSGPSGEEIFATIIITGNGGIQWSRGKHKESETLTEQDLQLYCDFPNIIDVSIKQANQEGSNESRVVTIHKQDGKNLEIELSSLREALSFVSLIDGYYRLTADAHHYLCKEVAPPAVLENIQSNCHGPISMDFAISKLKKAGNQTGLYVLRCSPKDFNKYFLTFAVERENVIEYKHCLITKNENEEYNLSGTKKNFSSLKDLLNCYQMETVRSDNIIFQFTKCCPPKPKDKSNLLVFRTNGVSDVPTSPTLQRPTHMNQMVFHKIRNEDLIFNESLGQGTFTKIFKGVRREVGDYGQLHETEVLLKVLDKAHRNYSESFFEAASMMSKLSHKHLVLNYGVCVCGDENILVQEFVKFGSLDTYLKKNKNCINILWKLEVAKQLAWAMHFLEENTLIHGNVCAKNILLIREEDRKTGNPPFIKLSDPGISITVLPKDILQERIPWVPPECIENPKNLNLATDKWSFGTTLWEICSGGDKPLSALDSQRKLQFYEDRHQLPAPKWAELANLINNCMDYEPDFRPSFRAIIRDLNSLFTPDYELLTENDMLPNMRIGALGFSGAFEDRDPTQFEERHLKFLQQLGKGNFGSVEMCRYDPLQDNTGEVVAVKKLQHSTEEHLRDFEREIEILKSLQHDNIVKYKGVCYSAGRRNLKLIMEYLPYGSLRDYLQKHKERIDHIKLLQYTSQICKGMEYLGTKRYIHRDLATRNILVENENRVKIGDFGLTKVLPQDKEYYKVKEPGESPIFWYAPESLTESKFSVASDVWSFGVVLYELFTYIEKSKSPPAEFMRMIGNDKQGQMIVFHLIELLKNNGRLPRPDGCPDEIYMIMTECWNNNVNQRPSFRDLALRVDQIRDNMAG

The IC50 is the concentration needed to halve the response being measured. As for `Cn1cc(Nc2ncc(Cl)c(NC3CCC4(CC3)CCN(C(=O)CC#N)CC4)n2)cn1` [Ex. 26, 3-(9-((5-chloro-2-((1-methyl-1H-pyrazol-4-yl)amino)pyrimidin-4-yl)amino)-3-azaspiro[5.5]undecan-3-yl)-3-oxopropanenitrile], the results for the concentration for half-maximal inhibition (IC50) on JAK1 (h) and at JAK2 (h) were 2 nM and 6 nM, respectively.
Consider `CN(c1nc(Nc2cnn(C)c2)ncc1Cl)C1CCC2(CCCN(C(=O)CC#N)C2)C1` (stereo not shown), for which the IC50 was determined as 3 nM at JAK1 (h) and 7 nM on JAK2 (h).
For `CN(c1nc(Nc2cnn(C)c2)ncc1Cl)C1CCC2(CC1)CCN(C(=O)CC#N)CC2` [Ex. 24, 3-(9-((5-chloro-2-((1-methyl-1H-pyrazol-4-yl)amino)pyrimidin-4-yl)(methyl)amino)-3-azaspiro[5.5]undecan-3-yl)-3-oxopropanenitrile], the values for the IC50 at JAK1 (h) and on JAK2 (h) were 19 nM and 39 nM, respectively.
Broadly, the half-life is the time needed for the level to fall by half in the phase considered. A word on the CLint scaled: it is a measure of how fast metabolising enzymes remove a compound, apart from limits set by blood flow. By AUC(0-t) is commonly meant the area under the concentration-time curve up to a stated or last time point. A high value points to more exposure. For `Cn1nc(C2CC2)cc1Nc1ncc(Cl)c(NC2CC3CN(C(=O)CC#N)CC3C2)n1` (stereo not shown) [Ex. 56, 3-(5-((5-chloro-2-((3-cyclopropyl-1-methyl-1H-pyrazol-5-yl)amino)pyrimidin-4-yl)amino)hexahydrocyclopenta[c]pyrrol-2(1H)-yl)-3-oxopropanenitrile], the half-life at 5 μM in data set [1] (setting [4]) was 37.6 min. Besides, the intrinsic clearance (CLint scaled) at 5 μM in data set [1] (pH 7.4, Human liver microsomes) is 46.2 mL/min/kg. This compound came in with a half-life at 5 μM in data set [2] (setting [5]) of 41.4 min. In data set [2] (pH 7.4, Rat liver microsomes), the intrinsic metabolic clearance (CLint scaled) at 5 μM was 60 mL/min/kg. Moreover, in data set [3], the “Clearance (CL) after iv dosing” value came out at 36.3 mL/min/kg, the F was 31.3%, the AUC(0-t) was determined as 459 ng·h/mL and the half-life was 32.4 min. For the same compound, in data set [3], the Vd is 0.95 L/kg. Moreover, the IC50 on JAK1 (h) stood at 5 nM.
On to `Cn1cc(Nc2ncc(Cl)c(NC3CCC4(CCNC4)CC3)n2)cn1` (single isomer, unassigned) [Ex. 13.3B, 5-chloro-N^2-(1-methyl-1H-pyrazol-4-yl)-N^4-(2-azaspiro[4.5]decan-8-yl)pyrimidine-2,4-diamine], for which the IC50 amounted to 2 nM at JAK1 (h) and 14 nM on JAK2 (h).
Turning to `N#CCC(=O)N1CCC2(CCC(Nc3nc(Nc4cnn(CCO)c4)ncc3Cl)CC2)CC1` [Ex. 50, 3-(9-((5-chloro-2-((1-(2-hydroxyethyl)-1H-pyrazol-4-yl)amino)pyrimidin-4-yl)amino)-3-azaspiro[5.5]undecan-3-yl)-3-oxopropanenitrile], the half-life at 5 μM in data set [1] (human, liver microsomes, pH 7.4, Human liver microsomes 0.5 mg protein/mL) is 537 min. For the same compound, the intrinsic metabolic clearance (CLint scaled) at 5 μM in data set [1] (human, liver microsomes, pH 7.4, Human liver microsomes) was 3.24 mL/min/kg. In data set [2] (rat, liver microsomes, pH 7.4, Rat liver microsomes 0.5 mg protein/mL), this compound showed a half-life at 5 μM of 308 min. Further, the CLint scaled at 5 μM in data set [2] (rat, liver microsomes, pH 7.4, Rat liver microsomes) is 8.07 mL/min/kg. Moreover, in data set [3], the “Clearance (CL) after iv dosing” value turned out to be 43.2 mL/min/kg, the F came out at 17.3%, the AUC(0-t) came out at 384 ng·h/mL and the half-life is 59.4 min. In data set [3], the Vd was determined as 1.93 L/kg. At JAK1 (h), this compound displayed a half-inhibitory concentration (IC50) of 14 nM.
With `CN(c1nc(Nc2cnn(C)c2)ncc1Cl)C1CC2CN(C(=O)CC#N)CC2C1` (stereo not shown) [Ex. 69, 3-(5-((5-chloro-2-((1-methyl-1H-pyrazol-4-yl)amino)pyrimidin-4-yl)(methyl)amino)hexahydrocyclopenta[c]pyrrol-2(1H)-yl)-3-oxopropanenitrile], the half-life at 5 μM in data set [1] (setting [4]) worked out at 95.6 min. Besides, the CLint scaled at 5 μM in data set [1] (pH 7.4, Human liver microsomes) is 18.2 mL/min/kg. In addition, the half-life at 5 μM in data set [2] (setting [5]) worked out at 12.2 min. Also, in data set [2] (pH 7.4, Rat liver microsomes), the intrinsic clearance (CLint scaled) at 5 μM was 204 mL/min/kg. In data set [3], the “Clearance (CL) after iv dosing” value amounted to 65.2 mL/min/kg, the F was 56.2%, the exposure AUC(0-t) amounted to 281 ng·h/mL and the half-life is 28.2 min. For the same compound, in data set [3], the Vd was determined as 1.19 L/kg. In addition, the IC50 on JAK1 (h) stood at 15 nM.
Take `Cc1cnc(Nc2cnn(C)c2)nc1NC1CC2CN(S(C)(=O)=O)CC2C1` (stereo not shown) [Ex. 62, 5-methyl-N^2-(1-methyl-1H-pyrazol-4-yl)-N^4-(2-(methylsulfonyl)octahydrocyclopenta[c]pyrrol-5-yl)pyrimidine-2,4-diamine]: the half-life at 5 μM in data set [1] (setting [4]) was 271 min. For the same compound, the CLint scaled at 5 μM in data set [1] (pH 7.4, Human liver microsomes) was 6.41 mL/min/kg. This compound came in with a half-life at 5 μM in data set [2] (setting [5]) of 81.1 min. Also, the CLint scaled at 5 μM in data set [2] (pH 7.4, Rat liver microsomes) was 30.6 mL/min/kg. Moreover, in data set [3], the “Clearance (CL) after iv dosing” value amounted to 82.8 mL/min/kg, the F amounted to 29.6%, the exposure AUC(0-t) stood at 184 ng·h/mL and the half-life is 48.6 min. The Vd in data set [3] is 5.43 L/kg. Further, at JAK1 (h), the IC50 amounted to 4 nM.
Compound `N#CCC(=O)N1CC2CC(Nc3nc(Nc4cnn(CCO)c4)ncc3Cl)CC2C1` (stereo not shown) [Ex. 44, 3-(5-((5-chloro-2-((1-(2-hydroxyethyl)-1H-pyrazol-4-yl)amino)pyrimidin-4-yl)amino)hexahydrocyclopenta[c]pyrrol-2(1H)-yl)-3-oxopropanenitrile] showed a half-life at 5 μM in data set [1] (setting [4]) of 243 min. The intrinsic clearance (CLint scaled) at 5 μM in data set [1] (pH 7.4, Human liver microsomes) was 7.15 mL/min/kg. In addition, in data set [2] (setting [5]), the half-life at 5 μM was 398 min. The CLint scaled at 5 μM in data set [2] (pH 7.4, Rat liver microsomes) was 6.24 mL/min/kg. Also, in data set [3], the “Clearance (CL) after iv dosing” value came to 49.3 mL/min/kg, the F was 12.0%, the area under the curve AUC(0-t) was 343 ng·h/mL and the half-life was 33 min. Moreover, in data set [3], the Vd is 1.09 L/kg. This compound came in with an IC50 on JAK1 (h) of 57 nM.
